Assay results published in patent publication US20190289874A1, “STAIN PREVENTION FORMULATIONS” (WM. WRIGLEY JR. COMPANY, priority 2016, published 2019).

Assay: In vitro bovine teeth test (stain prevention solutions)
Details: for concentration showing a significant visible whitening effect: % by weight of solution, bovine teeth test; for stain-prevention effect: bovine teeth tests, dose response of solutions of Table 1 (FIG. 1), change in whitening index
Procedure: HAD assay and the bovine teeth test were employed by methods generally known in the art for screening stain prevention actives. HAD assays generally included pre-coating a HAD disc with saliva for 1-2 hours and subsequently exposing the disc to a staining broth containing tea, coffee, gastric mucin, trypticase soy broth and saliva for four days. Each day, the disc was moved from staining broth to a solution with a stain prevention formulation three times. The process was repeated for four days. The disc was dried and the color was measured. […] The color of the bovine teeth was measured before and after staining.
To evaluate stain prevention effect, the whitening index of the teeth before and after staining and treatment was calculated. The white index, W, is defined as:
W*=√{square root over ((L*−1.00)^2+(a*)^2+(b*)^2)}
A pure white substance will have W value of […]. The higher the value of ΔW, the whiter the sample would be.
In total, 4-6 HA discs or bovine teeth were tested for each compound or combination. The values were averaged.

| SMILES | concentration showing a significant visible whitening effect [%] | stain-prevention effect | relative effectiveness for stain prevention (comparison between compounds or combinations) |
| --- | --- | --- | --- |
| CCCCCCCCCCCC(=O)N[C@@H](CCCN=C(N)N)C(=O)OCC [LAE, lauroyl arginine ethyl ether] | ≥ 0.05 | very effective |  |
| O=P([O-])([O-])OP(=O)([O-])[O-].[Na+].[Na+].[Na+].[Na+] [SPP, sodium pyrophosphate] |  | very effective |  |
| O=P(O)(O)OP(=O)(O)OP(=O)(O)O [STP, sodium tripolyphosphate] | ≥ 0.1 | very effective | more effective |
| NC(N)=O [Urea, urea] |  | very effective |  |
| OO [hydrogen peroxide, reference compound] | ≥ 0.25 |  |  |
